Test results reported in ChEMBL document CHEMBL1201862, “PubChem BioAssay data set” (2004).
The source made the active and inactive calls.

Legend:
HEK293 [1] = test: cytotoxicity in HEK293T NF-kB-Luc cells, SAR follow-up, cytotoxicity control for NF-kB activator project, cell-based, resazurin fluorescence (AID 493251); type: functional; settings: Homo sapiens
Trypsin = Trypsin (Sus scrofa, UniProt P00761); test: porcine trypsin inhibitors, dose response, selectivity assay for Rce1 protease inhibitor project, biochemical, quenched peptide fluorescence, cherry-pick (AID 488789)
Trypsin, sequence (P00761 whole entry): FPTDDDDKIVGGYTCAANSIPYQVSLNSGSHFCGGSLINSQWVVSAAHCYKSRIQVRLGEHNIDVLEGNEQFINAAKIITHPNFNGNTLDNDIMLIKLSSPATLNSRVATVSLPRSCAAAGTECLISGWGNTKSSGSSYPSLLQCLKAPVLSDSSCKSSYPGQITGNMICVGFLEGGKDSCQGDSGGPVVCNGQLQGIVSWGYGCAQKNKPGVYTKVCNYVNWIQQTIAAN

CAAX prenyl protease 2 [2] = target: T1, CAAX prenyl protease 2 (Saccharomyces cerevisiae S288c, UniProt Q03530); type: biochemical
T1 sequence (Q03530 whole entry): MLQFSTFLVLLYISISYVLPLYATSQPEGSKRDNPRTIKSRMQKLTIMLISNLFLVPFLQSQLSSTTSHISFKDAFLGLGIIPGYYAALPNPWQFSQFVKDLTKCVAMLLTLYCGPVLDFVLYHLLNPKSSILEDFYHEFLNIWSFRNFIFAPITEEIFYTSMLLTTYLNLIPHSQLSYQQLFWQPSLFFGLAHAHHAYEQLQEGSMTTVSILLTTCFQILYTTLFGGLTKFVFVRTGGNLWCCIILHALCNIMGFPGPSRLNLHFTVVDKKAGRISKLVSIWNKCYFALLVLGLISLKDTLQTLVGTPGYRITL

CAAX prenyl protease 2 [3] = target: CAAX prenyl protease 2 (Homo sapiens, UniProt Q9Y256); test: human Rce1 protease inhibitors, dose response, biochemical, yeast membranes, quenched-peptide fluorescence, cherry-pick (AID 588849)
CAAX prenyl protease 2 (Homo sapiens, UniProt Q9Y256), sequence (Q9Y256 whole entry): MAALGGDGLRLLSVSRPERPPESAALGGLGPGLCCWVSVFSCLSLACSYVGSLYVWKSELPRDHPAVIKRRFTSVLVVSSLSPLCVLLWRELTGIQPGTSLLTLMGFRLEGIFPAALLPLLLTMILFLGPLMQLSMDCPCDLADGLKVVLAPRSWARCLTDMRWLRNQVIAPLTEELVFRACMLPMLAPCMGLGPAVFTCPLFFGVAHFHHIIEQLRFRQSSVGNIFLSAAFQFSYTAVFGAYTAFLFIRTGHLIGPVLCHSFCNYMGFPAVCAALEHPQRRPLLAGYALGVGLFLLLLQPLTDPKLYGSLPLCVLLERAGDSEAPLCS

[4] = target: T2, Polyadenylate-binding protein 1 (Homo sapiens, UniProt P11940); test: PABP1 MLLE–PAM2 interaction inhibitors, dose response, miRNA deadenylation inhibitor project, biochemical, fluorescence polarization, Cy5-PAM2 peptide, secondary (AID 602260); type: functional; settings: read-out: IC50_Mean
T2 sequence (P11940 whole entry): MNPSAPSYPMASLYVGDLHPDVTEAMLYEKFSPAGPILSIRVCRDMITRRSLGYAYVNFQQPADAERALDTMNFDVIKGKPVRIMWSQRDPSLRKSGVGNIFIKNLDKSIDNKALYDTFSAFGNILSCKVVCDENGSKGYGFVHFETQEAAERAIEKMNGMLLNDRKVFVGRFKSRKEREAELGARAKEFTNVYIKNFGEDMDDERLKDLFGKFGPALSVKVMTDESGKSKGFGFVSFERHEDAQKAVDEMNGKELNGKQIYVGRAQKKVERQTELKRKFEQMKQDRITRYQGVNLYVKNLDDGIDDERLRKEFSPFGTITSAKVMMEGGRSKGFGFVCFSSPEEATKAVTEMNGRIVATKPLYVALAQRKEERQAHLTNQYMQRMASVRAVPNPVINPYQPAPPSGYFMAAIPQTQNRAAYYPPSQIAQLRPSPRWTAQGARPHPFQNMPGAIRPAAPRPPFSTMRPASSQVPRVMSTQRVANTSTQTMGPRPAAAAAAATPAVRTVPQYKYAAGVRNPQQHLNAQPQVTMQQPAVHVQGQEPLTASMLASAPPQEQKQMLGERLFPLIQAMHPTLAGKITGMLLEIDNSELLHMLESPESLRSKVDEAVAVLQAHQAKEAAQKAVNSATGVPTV

[5] = target: T2, Polyadenylate-binding protein 1; test: PABP1 MLLE–PAM2 binding inhibitor potency, dose response, biochemical, fluorescence polarization, FITC-PAM2 peptide (AID 602259); type: functional; settings: read-out: IC50_Mean
[6] = target: T3, G-protein coupled receptor 55 (Homo sapiens, UniProt Q9Y2T6); test: GPR55 antagonists, SAR follow-up, counter-screen for GPR35 antagonist project, imaging, image-based (AID 2397); type: functional
T3 sequence (Q9Y2T6 whole entry): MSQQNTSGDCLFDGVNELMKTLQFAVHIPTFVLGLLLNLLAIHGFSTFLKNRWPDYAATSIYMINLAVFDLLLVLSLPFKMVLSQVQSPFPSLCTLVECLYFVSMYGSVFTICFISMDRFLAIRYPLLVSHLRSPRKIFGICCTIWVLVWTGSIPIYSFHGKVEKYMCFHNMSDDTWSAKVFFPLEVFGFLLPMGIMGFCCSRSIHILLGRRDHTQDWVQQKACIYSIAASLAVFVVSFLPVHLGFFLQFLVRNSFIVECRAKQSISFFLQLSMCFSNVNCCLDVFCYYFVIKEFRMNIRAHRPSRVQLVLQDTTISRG

[7] = target: Beta-2 adrenergic receptor (Homo sapiens, UniProt P07550); test: beta2AR agonists driving receptor internalization, dose response, cell-based, FAP fluorogen, flow cytometry, cherry pick 1 (AID 588763); type: functional
Beta-2 adrenergic receptor, sequence (P07550 whole entry): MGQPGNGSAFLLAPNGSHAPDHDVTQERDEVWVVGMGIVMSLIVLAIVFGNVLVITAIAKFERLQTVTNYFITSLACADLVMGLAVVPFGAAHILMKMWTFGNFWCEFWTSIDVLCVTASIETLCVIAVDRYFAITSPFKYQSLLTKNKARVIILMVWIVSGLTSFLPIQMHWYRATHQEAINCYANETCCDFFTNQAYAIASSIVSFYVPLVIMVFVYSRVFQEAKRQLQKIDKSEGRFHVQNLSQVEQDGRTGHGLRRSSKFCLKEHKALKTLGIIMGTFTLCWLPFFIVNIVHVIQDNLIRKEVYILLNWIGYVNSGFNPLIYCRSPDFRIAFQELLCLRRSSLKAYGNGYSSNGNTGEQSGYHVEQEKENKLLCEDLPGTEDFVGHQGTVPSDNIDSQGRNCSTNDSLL

BJ [8] = test: cytotoxicity toward BJ-TERT fibroblasts, dose response, cell-based, RAS-independent, luminescence (AID 1933); type: functional; settings: Homo sapiens
BJ [9] = test: cells; type: functional, cell-based; settings: Homo sapiens
[10] = growth suppression of PTEN-null colon cells, dose response, cell-based, HCT116 PTEN knockout (AID 1047); type: functional;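 note: HCT116 colon tumor cells with PTEN knocked out; cells exposed to compound for 60 hours before readout; potency for loss of cell viability measured by luminescence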
[11] = growth suppression of beta-catenin-knockout colon cells, dose response, cell-based, HCT116, human colon tumor (AID 1045); type: functional;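 note: HCT116 colon tumor cells with beta catenin knocked out; cells exposed to compound for 60 hours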
[12] = cytotoxicity toward DRD oncogenic fibroblasts, dose response, cell-based, non-viral oncogenic, luminescence (AID 1934); type: functional; settings: Homo sapiens
[13] = target: T3, G-protein coupled receptor 55; test: GPR55 agonists via beta-arrestin recruitment, primary screen, imaging, U2OS cells, beta-arrestin-GFP redistribution (AID 1961); type: functional
[14] = target: C-C chemokine receptor type 6 (Homo sapiens, UniProt P51684); test: CCR6 receptor antagonists, dose response, cell-based, luminescent beta-arrestin readout (AID 504728); type: functional
C-C chemokine receptor type 6, sequence (P51684 whole entry): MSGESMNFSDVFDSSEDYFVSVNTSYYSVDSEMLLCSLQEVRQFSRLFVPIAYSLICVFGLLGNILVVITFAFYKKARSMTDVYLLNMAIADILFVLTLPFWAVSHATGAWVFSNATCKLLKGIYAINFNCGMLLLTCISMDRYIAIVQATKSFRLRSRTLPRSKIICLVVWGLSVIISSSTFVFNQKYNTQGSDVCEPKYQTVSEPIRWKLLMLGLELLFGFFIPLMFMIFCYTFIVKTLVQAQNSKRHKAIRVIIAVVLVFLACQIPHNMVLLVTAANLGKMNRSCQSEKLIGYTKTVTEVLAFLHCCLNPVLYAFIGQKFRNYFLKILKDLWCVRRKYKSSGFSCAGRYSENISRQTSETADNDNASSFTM

Beta-galactosidase = Beta-galactosidase (Escherichia coli, UniProt Q8VNN2); test: beta-galactosidase enzyme inhibitors and activators, dose response, artefact control for CCR6 antagonist project, biochemical, E. coli enzyme, set 3 (AID 504712); type: functional
Beta-galactosidase, sequence (Q8VNN2 whole entry): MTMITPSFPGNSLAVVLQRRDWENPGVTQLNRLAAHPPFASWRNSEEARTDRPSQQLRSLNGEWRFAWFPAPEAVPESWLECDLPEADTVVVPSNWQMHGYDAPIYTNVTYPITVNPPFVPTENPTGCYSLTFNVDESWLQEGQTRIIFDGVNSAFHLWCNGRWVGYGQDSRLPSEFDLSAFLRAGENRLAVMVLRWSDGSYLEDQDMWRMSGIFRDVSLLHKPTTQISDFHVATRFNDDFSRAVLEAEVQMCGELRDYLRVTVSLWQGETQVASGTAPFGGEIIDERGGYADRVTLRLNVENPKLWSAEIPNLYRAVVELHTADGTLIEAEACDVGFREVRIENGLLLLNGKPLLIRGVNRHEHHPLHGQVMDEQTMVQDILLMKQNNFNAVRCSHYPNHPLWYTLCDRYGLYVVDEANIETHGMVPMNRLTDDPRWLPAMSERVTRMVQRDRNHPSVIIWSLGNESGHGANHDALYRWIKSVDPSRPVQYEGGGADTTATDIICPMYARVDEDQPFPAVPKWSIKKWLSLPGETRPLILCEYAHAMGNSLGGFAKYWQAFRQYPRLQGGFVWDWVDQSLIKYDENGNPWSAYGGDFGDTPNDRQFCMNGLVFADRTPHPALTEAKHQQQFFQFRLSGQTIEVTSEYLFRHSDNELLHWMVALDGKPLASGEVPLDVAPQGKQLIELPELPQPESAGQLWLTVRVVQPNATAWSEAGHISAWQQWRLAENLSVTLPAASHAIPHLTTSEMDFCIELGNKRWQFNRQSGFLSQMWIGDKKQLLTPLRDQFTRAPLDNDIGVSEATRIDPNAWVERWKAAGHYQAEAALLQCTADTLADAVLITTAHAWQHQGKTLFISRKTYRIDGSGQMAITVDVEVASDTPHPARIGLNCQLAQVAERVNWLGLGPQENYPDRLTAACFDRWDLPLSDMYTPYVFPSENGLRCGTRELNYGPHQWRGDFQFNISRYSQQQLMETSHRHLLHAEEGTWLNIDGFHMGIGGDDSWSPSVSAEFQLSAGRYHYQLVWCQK

BJ [15] = test: cytotoxicity toward Ras-transformed BJeLR fibroblasts, dose response, cell-based, alamar blue fluorescence, cherrypicked samples (AID 2631); type: functional; settings: Homo sapiens;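 note: confirmatory dose-response assay in RAS-dependent BJ fibroblasts engineered with TERT, LT and ST, with cytotoxicity read by fluorescence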
INS1 = test: beta cell apoptosis inhibitors, cytokine rescue, dose response, luminescence, retest (AID 449756); type: functional, cell-based; settings: Rattus norvegicus;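 note: cell death triggered by IL-1 beta plus TNF-alpha plus IFN-gamma mixture; protective hits raise ATP signal compared with cytokine alone wells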
[16] = Fluorescence-based cell-based high throughput dose response assay for inhibitors of the interaction of nucleotide-binding oligomerization domain containing 2 (NOD2) and the receptor-interacting serine-threonine kinase 2 (RIPK2).; type: functional; settings: Homo sapiens
Beta Lactamase = Beta Lactamase (Pseudomonas aeruginosa, UniProt Q932Y6); test: beta-lactamase reporter inhibitor potency, dose response, artefact control for NOD2-RIPK2 interaction inhibitor project, BLA reporter cells, FRET fluorescence (AID 651552); type: functional, cell-based
Beta Lactamase, sequence (Q932Y6 whole entry): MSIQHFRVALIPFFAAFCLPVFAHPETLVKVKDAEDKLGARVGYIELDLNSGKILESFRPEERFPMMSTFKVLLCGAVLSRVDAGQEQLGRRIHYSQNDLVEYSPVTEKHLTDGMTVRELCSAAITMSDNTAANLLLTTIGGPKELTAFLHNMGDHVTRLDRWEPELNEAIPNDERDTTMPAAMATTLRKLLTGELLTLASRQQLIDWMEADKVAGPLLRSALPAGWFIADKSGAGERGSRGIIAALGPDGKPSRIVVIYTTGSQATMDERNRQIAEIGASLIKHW

[17] = HeLa cell cytotoxicity, dose response, cytotoxicity control for MgcRacGAP inhibitor project (AID 624300); type: functional
[18] = target: T4, Rac GTPase-activating protein 1 (Homo sapiens, UniProt Q9H0H5); test: MgcRacGAP GTPase-activating activity inhibitors, confirmation, biochemical, ADP Hunter fluorescence, primary and confirmatory (AID 624330); type: functional
T4 sequence (Q9H0H5 whole entry): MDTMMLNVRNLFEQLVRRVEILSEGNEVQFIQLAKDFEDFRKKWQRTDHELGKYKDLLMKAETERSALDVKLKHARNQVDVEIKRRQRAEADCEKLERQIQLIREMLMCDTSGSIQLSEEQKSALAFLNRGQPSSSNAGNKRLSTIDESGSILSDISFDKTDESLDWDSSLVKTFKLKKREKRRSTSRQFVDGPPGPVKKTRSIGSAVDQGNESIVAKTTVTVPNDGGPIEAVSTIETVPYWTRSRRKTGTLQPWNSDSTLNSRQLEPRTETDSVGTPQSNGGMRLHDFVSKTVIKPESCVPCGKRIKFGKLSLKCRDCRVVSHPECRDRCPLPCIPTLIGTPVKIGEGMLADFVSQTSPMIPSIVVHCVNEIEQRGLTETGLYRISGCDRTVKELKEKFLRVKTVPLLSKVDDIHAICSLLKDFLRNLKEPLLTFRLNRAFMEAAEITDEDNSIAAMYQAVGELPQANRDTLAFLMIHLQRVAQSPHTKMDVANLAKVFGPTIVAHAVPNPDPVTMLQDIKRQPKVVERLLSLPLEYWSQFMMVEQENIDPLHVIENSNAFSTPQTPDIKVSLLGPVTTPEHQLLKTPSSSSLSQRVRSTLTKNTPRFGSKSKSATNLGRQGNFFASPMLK

[19] = target: T5, Mannose-6-phosphate isomerase (Homo sapiens, UniProt P34949); test: PMI enzyme inhibitors, confirmation, biochemical, fluorescence intensity (AID 1535)
T5 sequence (P34949 whole entry): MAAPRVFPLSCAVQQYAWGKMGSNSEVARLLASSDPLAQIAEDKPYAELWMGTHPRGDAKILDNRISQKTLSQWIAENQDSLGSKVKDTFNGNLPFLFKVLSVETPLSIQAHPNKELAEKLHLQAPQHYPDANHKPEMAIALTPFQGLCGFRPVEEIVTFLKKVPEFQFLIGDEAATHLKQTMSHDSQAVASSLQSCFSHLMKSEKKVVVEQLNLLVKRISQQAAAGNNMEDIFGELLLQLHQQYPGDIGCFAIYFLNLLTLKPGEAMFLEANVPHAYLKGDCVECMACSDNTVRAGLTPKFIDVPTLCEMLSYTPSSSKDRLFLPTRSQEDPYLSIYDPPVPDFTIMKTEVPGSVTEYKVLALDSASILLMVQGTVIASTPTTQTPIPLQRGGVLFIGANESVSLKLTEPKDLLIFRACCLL

Tumor necrosis factor = Tumor necrosis factor (Homo sapiens, UniProt P01375); test: TNFa-triggered NF-kB activation inhibitors, SAR follow-up, cell-based, revised (AID 2337); type: functional
Tumor necrosis factor, sequence (P01375 whole entry, the tested form may be a part): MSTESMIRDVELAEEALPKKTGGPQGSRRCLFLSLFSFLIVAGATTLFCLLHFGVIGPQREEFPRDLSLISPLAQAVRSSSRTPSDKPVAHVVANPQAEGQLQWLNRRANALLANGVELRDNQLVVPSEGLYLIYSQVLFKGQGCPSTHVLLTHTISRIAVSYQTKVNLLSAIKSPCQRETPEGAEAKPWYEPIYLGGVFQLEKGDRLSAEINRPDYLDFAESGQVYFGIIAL

[20] = target: T6, Nucleotide-binding oligomerization domain-containing protein 1 (Homo sapiens, UniProt Q9Y239); test: NOD1 signaling inhibitors, SAR follow-up, revised (AID 2333); type: functional
T6 sequence (Q9Y239 whole entry): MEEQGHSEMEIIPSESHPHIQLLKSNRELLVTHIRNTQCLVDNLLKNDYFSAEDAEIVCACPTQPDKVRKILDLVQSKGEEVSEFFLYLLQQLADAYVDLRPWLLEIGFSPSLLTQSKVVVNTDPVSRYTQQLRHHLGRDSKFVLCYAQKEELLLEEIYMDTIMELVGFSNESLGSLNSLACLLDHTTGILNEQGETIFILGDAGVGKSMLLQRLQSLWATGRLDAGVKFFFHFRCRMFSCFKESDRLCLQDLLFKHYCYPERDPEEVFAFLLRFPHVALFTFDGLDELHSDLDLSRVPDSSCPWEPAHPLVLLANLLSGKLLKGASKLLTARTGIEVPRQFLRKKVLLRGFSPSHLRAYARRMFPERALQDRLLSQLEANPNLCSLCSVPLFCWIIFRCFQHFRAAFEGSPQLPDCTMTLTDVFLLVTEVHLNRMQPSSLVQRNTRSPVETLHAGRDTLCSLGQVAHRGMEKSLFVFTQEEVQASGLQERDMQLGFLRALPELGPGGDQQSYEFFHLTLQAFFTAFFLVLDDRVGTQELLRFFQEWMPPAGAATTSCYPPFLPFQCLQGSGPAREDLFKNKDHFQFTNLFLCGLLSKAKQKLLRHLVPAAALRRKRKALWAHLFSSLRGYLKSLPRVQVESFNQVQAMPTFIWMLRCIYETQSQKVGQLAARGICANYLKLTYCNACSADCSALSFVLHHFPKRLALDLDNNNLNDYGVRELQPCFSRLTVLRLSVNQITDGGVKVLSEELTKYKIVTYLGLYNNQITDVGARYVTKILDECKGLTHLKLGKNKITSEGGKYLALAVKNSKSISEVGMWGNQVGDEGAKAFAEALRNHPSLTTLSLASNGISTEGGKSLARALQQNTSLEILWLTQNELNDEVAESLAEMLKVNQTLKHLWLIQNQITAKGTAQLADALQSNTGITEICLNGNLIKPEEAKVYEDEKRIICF

HEK293 [21] = test: cells; settings: Homo sapiens

Question: With O=C(O)CCc1nc(-c2ccccc2)no1 as the molecule, how does the IC50 (HEK293 [1]) read?
Answer: > 80 µM (inactive)

Question: Which AC50 (Trypsin) does the source give for COC(=O)Nc1nnc(-c2ccncc2)s1 here?
Answer: 12.5 µM (active)

Question: And the AC50 (CAAX prenyl protease 2 [2])?
Answer: 9.58 µM (active)

Question: What about the AC50 (CAAX prenyl protease 2 [3]) of the same molecule?
Answer: 5.84 µM (active)

Question: What about the IC50 [4] of the same molecule?
Answer: > 66 µM (inactive)

Question: What about the IC50 [5] of the same molecule?
Answer: > 66 µM (inactive)

Question: With COC(=O)CSc1nc2ccc(NC(=O)c3ccccc3C(=O)N3CCOCC3)cc2s1 as the molecule, how does the IC50 [6] read?
Answer: > 32 µM (inactive)

Question: Which EC50 [7] does the source give for CCCCN(CCCC)c1nc2ccccc2nc1NS(=O)(=O)c1ccc(NC(C)=O)cc1 here?
Answer: 0.0203 µM (active)

Question: What does the source list for COC(=O)c1ccc2c(c1)C(C)(C)C(/C=C/c1ccc(OC)c(OC)c1OC)=[N+]2C?
Answer: EC50 (BJ [8]): 3.9 µM (inconclusive); EC50 (BJ [9]): 14.4 µM (active); EC50 [10]: 5.04 µM (active); EC50 [11]: 3.84 µM (active); EC50 [12]: 3.71 µM (active); EC50 [13]: 1.51 µM (active); IC50 [14]: 21.4 µM (inactive); IC50 (Beta-galactosidase): > 66.6 µM (inactive); EC50 (BJ [15]): 1.3 µM (inconclusive); AC50 (INS1): 2.09 µM (active); IC50 [16]: 1.93 µM (active); IC50 (Beta Lactamase): 39.1 µM (inactive); CC50 [17]: 60.4 µM (active); IC50 [18]: 25.7 µM (active)

Question: For Clc1nss/c1=N\c1nc2ccccc2[nH]1, which IC50 [19] is on record?
Answer: 98.1 µM (active)

Question: For CCc1cc(C(=O)NC2CCCc3c2cnn3-c2ccc(F)cc2F)no1 (stereo not given), which IC50 (Tumor necrosis factor) is on record?
Answer: > 20 µM (inactive)

Question: What about the IC50 [20] of the same molecule?
Answer: 10.4 µM (active)

Question: What about the IC50 (HEK293 [21]) of the same molecule?
Answer: > 20 µM (inactive)

Question: Which IC50 (Tumor necrosis factor) does the source give for CCOC(=O)c1ccc(NC(=O)c2ccc(CCN3CCc4ccccc4C3)cc2)cc1 here?
Answer: 10.8 µM (active)

Question: And the IC50 [20]?
Answer: 10.6 µM (active)

Question: And the IC50 (HEK293 [21])?
Answer: > 20 µM (inactive)

Question: With c1ccc(Cn2ncc3c(N4CCN(c5ccccc5)CC4)ncnc32)cc1 as the molecule, how does the IC50 [6] read?
Answer: 29.1 µM (inactive)
